According to the NIST ThermoML archive (doi:10.1016/j.jct.2016.08.022):

Columns and labels:
[1] = Molar enthalpy of transition or fusion; conditions: Crystal 2; Adiabatic calorimetry
[2] = for molar entropy: 101.33 kPa, Small (less than 1 g) adiabatic calorimetry

CCC(=O)O[C@]1(C(=O)COC(C)=O)CC[C@H]2[C@@H]3C[C@H](C)C4=CC(=O)C=C[C@]4(C)[C@H]3[C@@H](O)C[C@@]21C [Methylprednisolone aceponate]
Conditions | Molar enthalpy of transition or fusion [kcal/mol]
[1] | 0.0526

[2]
Conditions | molar entropy [J/K/mol]
5 K, Crystal 2 | 0.628
10 K, Crystal 2 | 4.44
15 K, Crystal 2 | 10.8
20 K, Crystal 2 | 18.5
25 K, Crystal 2 | 27.49
30 K, Crystal 2 | 37.43
40 K, Crystal 2 | 58.9
50 K, Crystal 2 | 81.57
60 K, Crystal 2 | 105
70 K, Crystal 2 | 128.9
80 K, Crystal 2 | 152.9
90 K, Crystal 2 | 177.1
100 K, Crystal 2 | 201.3
110 K, Crystal 2 | 225.4
120 K, Crystal 2 | 249.3
130 K, Crystal 2 | 273.2
140 K, Crystal 1 | 296.3
150 K, Crystal 1 | 318.6
160 K, Crystal 1 | 340.7
170 K, Crystal 1 | 362.5
180 K, Crystal 1 | 384.1
190 K, Crystal 1 | 405.4
200 K, Crystal 1 | 426.6
210 K, Crystal 1 | 447.6
220 K, Crystal 1 | 468.5
230 K, Crystal 1 | 489.3
240 K, Crystal 1 | 509.9
250 K, Crystal 1 | 530.5
260 K, Crystal 1 | 551
270 K, Crystal 1 | 571.5
280 K, Crystal 1 | 591.8
290 K, Crystal 1 | 612.1
298.15 K, Crystal 1 | 628.6
300 K, Crystal 1 | 632.4
310 K, Crystal 1 | 652.6
320 K, Crystal 1 | 672.9
330 K, Crystal 1 | 693.1
340 K, Crystal 1 | 713.4
346 K, Crystal 1 | 725.6

Conditions | Triple point temperature [K]
[2], Crystal 2, Adiabatic calorimetry | 131
